Laboratory results: publication PMC11928584, “H105A peptide eye drops promote photoreceptor survival in murine and human models of retinal degeneration” (Communications Medicine, 2025)
Where a SMILES comes first, the peptide text is derived from it.

Columns and labels:
[1] = tested on: photoreceptors of rd10/Serpinf1-/- mice; assay: ONL thickness (histology, spider plot), rd10/Serpinf1-/- mice; format: in vivo, mouse; conditions: daily eye drops, P21
Procedure: Both eyes were oriented before enucleation to allow sectioning along the dorsal/ventral axis. Enucleated eyes from rd10 and rd10/Serpinf1^-/- mice were incised in the cornea and fixed in 2.5% glutaraldehyde for 20 min and then in 10% neutral buffered formalin at 4 °C for at least 48 h, followed by paraffin embedding, sectioning, and staining with either H&E or immunofluorescence procedures. […] For fluorescence microscopy, antibodies, and 0.1 µg/ml DAPI were used to immunostain and counterstain the nuclei, respectively. […] Fluorescence intensity was quantified using ImageJ, and a rectangle was selected around regions of interest (ROIs), channels were split for multiple antibodies, threshold was adjusted, noise was de-speckled, and fluorescence intensity was measured.
To generate spider plots, the ONL thickness was measured from images passing through the optic nerve (ON) acquired with light microscopy of the retina sections stained with H&E or images of retina sections stained with DAPI with a dorsal-ventral orientation. The ONL thickness in the entire retina sections was measured at 5 different positions from both sides of the ON using ImageJ[28]. […]

[2] = tested on: human iPSC-derived retinal organoids exposed to CSE; assay: Ethidium homodimer staining of live retinal organoids (3D-ARQ); format: cell-based; conditions: D180 ROs, 24 h, mean ± SD, n=14
Procedure: Human iPSCs were differentiated into retinal organoids (ROs) following the protocol by Zhong et al.[41]. Briefly, on Day 0, hiPSC colonies were dissociated with dispase and grown in a suspension to form embryoid bodies, and slowly transitioned to neural induction media (DMEM/F12 (1:1), 1% N2 supplement (Invitrogen), 1 x minimum essential media-nonessential amino acids (NEAAs), 2 µg/ml heparin (Sigma)). On Day 7, EBs were seeded on Matrigel coated plates and maintained in neural induction media. On Day 16, the media was switched to the retinal differentiation medium (DMEM/F12 (3:1), 2% B27 (without vitamin A, Invitrogen), 1x NEAA and 1% antibiotic–antimycotic (Gibco)). Retinal domains were identified and lifted manually with tungsten needles between Day 21 and Day 26 under a phase contrast microscope. On day 30, the culture medium was transitioned to DMEM/F12 (3:1) with 2% B27, 1x NEAA, 1% antibiotic–antimycotic, 10% fetal bovine serum (FBS; Gibco), […] Taurine (Sigma), and 2 mM GlutaMAX (Invitrogen). Additionally, 1 µM retinoic acid supplement was introduced daily starting from day 63. […]
After treatment, ROs were washed in PBS (Gibco, 14190-144) and the auto-fluorescent background was measured by 3D-automated reporter quantification (3D-ARQ)[42], using a Tecan Spark Plate reader (SparkControl v2.3). The Z-position was determined manually by selecting the individual well and fluorescent intensity was measured using the optimized parameters below. […] After incubation, ROs were washed three times with PBS, and fluorescence intensity was measured by 3D-ARQ using the following parameters: Mode: Fluorescent top reading; Wavelength for PSVue-794: Excitation: Emission 730:820 nm, Excitation bandwidth: 10 nm, Emission bandwidth: 15 nm; Wavelength for Ethidium Homodimer: Excitation: Emission 530:630 nm, Excitation bandwidth: 5 nm, Emission bandwidth: 5 nm; Gain: 160, Manual; Number of flashes: 20; integration time: 40 µs; lag time 0 µs. […] Results were analysed after background subtraction; n = 19-24 ROs per condition. […]

| Structure (SMILES) | OS length and ONL thickness vs vehicle-treated or untreated eyes [1] | Fluorescence intensity of Ethidium homodimer ([2]; CSE 500 µg/ml + peptide 1 nM) [RFU] | Fluorescence intensity of Ethidium homodimer ([2]; CSE 500 µg/ml + peptide 20 nM) [RFU] |
| --- | --- | --- | --- |
| CC[C@H](C)[C@H](NC(=O)[C@H](CC(C)C)NC(=O)[C@H](CC(=O)O)NC(=O)[C@H](Cc1ccc(O)cc1)NC(=O)[C@H](Cc1ccc(O)cc1)NC(=O)[C@H](CC(C)C)NC(=O)[C@H](C)NC(=O)[C@H](CCCNC(=N)N)NC(=O)[C@H](C)NC(=O)[C@@H](NC(=O)[C@@H](NC(=O)[C@H](CO)NC(=O)[C@H](CCC(=O)O)NC(=O)[C@@H](NC(=O)[C@H](CCCNC(=N)N)NC(=O)[C@@H](N)CCC(N)=O)[C@@H](C)O)[C@@H](C)CC)[C@@H](C)CC)C(=O)N[C@@H](CO)C(=O)O [H105A] (H-QRTESIIARALYYDLIS-OH) | longer OS and thicker outer nuclear layer | 848.9 ± 51.0 | 919.2 ± 46.0 |
| CC[C@H](C)[C@H](NC(=O)[C@H](CC(C)C)NC(=O)[C@H](CC(=O)O)NC(=O)[C@H](Cc1ccc(O)cc1)NC(=O)[C@H](Cc1ccc(O)cc1)NC(=O)[C@H](CC(C)C)NC(=O)[C@H](C)NC(=O)[C@H](CCCNC(=N)N)NC(=O)[C@H](Cc1c[nH]cn1)NC(=O)[C@@H](NC(=O)[C@@H](NC(=O)[C@H](CO)NC(=O)[C@H](CCC(=O)O)NC(=O)[C@@H](NC(=O)[C@H](C)NC(=O)[C@@H](N)CCC(N)=O)[C@@H](C)O)[C@@H](C)CC)[C@@H](C)CC)C(=O)N[C@@H](CO)C(=O)O [R99A] (H-QATESIIHRALYYDLIS-OH) | no effect | – | 1283.2 ± 67.6 |
